This is an account of results in publication PMC4872784 (Oncotarget, 2016).

The test system of series [1] is Jurkat T-cell acute lymphoblastic leukemia (T-ALL) cells. Further details: method as in PMID 23673218. The conditions noted are these: cited from earlier work.
Series [2] deals with MOLM14 cells. Briefly: viable cell counts via Trypan Blue dye exclusion, 48h. Type of series: cell-based, human. As to the method:
(§1) A. Quantification of the percentage of early apoptotic cells (Annexin-V+/7-AAD-) from three independent experiments in which cells were stained for apoptosis with 7-AAD and Annexin-V then analyzed by flow cytometry. […] C. […] 16h after addition of drugs, cells were washed and analyzed by flow cytometry for CM-H2DCFDA fluorescence (indicating total ROS generation) in the FL1 channel. Mean Fluorescence Intensity (MFI) was normalized to that of vehicle control (0.5% DMSO) with no pretreatment. […] Viable cell counts, obtained via Trypan Blue dye exclusion, were normalized to vehicle (0.02% DMSO)-treated samples +/– pretreatment.
In most experiments, cytotoxicity was assessed using alamarBlue assays (Life Technologies, Grand Island, NY). In experiments using NAC and DFO, which can interfere with alamarBlue assay performance, Trypan Blue dye exclusion was used instead.

A further series has as its system KOPN8 cells. Briefly: alamarBlue cytotoxicity assay, 48h. It is filed as cell-based, human. The conditions noted are these: RPMI + 10% FBS. Here is the method: (§2) Following subtraction of background fluorescence from all wells, fluorescence of drug-treated cells was normalized to that of vehicle (<0.5% DMSO)-treated cells to determine the effect of each drug concentration on viability. Each cell line was tested in triplicate and in at least three independent experiments. IC50 (concentration that inhibits cell growth by 50%) values were calculated using CompuSyn software (ComboSyn, Paramus, NJ). […] In addition several cell lines were initially cultured and tested in alternative media (Supplementary Table S2). […] Colony counts were normalized to vehicle-treated controls (100%). Three independent experiments were performed.
(§3) In most experiments, cytotoxicity was assessed using alamarBlue assays (Life Technologies, Grand Island, NY). In experiments using NAC and DFO, which can interfere with alamarBlue assay performance, Trypan Blue dye exclusion was used instead. […]
(§4) experiments performed in triplicate. […] Age refers to age […]
(§5) at the time of leukemia diagnosis of the patient from whom the cell line was derived. (–) Indicates information unavailable.
(§6) *Cell lines with FLT3/ITD mutations.
(§7) *The MV-4–11 cell line was derived from a patient with a biphenotypic B-myelomonocytic leukemia; K562 was derived […]
(§8) 1A. p53 status was obtained from http://cancer.sanger.ac.uk/cell_lines/cbrowse/all and http://p53.free.fr/Database/Cancer_ cell_lines/Leukemia_cancer. html. WT: wild type. Mut: mutant. SM: single mutation. DM: double mutation. MM: multiple mutations. Fs: Frameshift mutation. Null: protein expression undetectable. […]
(§9) measured via alamarBlue assay. […]
In general terms: Resazurin is reduced to fluorescent resorufin, in cell work by metabolically active cells.

Series [3] has as its system MOLM14 cells. As to the kind of experiment: alamarBlue cytotoxicity assay, 48h. Type of series: cell-based, human. The conditions noted are these: for IC50: MOLM14 (AML), 48h, RPMI + 10% FBS. Here is the method:
as §2, §3, §4, §5, §6, §7, §8, §9

For another series, the system named is Kasumi-1 cells. As to the kind of experiment: alamarBlue cytotoxicity assay, 48h. Type of series: cell-based, human. The conditions noted are these: Kasumi-1 (AML), RPMI + 10% FBS. As to the method:
as §2, §3, §4, §5, §6, §7
(§10) 1A. p53 status was obtained from http://cancer.sanger.ac.uk/cell_lines/cbrowse/all and http://p53.free.fr/Database/Cancer_ cell_lines/Leukemia_cancer. html. WT: wild type. Mut: mutant. SM: single mutation. DM: double mutation. MM: multiple mutations. Fs: Frameshift mutation. Null: protein expression undetectable.

In a further series the test system is MOLT-3 cells. Briefly: alamarBlue cytotoxicity assay, 48h. It is filed as cell-based, human. The conditions noted are these: MOLT-3 (T-ALL), RPMI + 10% FBS. Here is the method:
as §2, §3, §4, §5, §6, §7, §10

For another series, the system named is primary B-ALL case #109. Briefly: intravenous B-ALL primagraft model.
The nature of series [4]: in vivo. The conditions noted are these: male, NSG, mouse, plasma, po, 200 mg/kg.
Description: Plasma samples were obtained from 3-6 male NSG mice per time point (15min-24h after drug administration). Symbols represent concentrations of compound by LC/MS-MS detection.
Blood samples were collected via retro-orbital bleeding into EDTA-coated tubes. PK samples were centrifuged to obtain plasma, which was stored frozen (−80°C) until liquid chromatography/triple quadrupole mass spectrometry (LC/MS-MS) analysis.
were separated using an Agilent Zorbax Eclipse C18 column (2.1 mm x 50 mm, 3.5 μm) using gradient mobile phase
(acetonitrile and 2 mM ammonium acetate both containing 0.1% formic acid) and a gradient flow rate (0.2 to 0.4 ml/
min). An AB Sciex 5500 triple quadrupole mass spectrometer was used for detection. The m/z transitions used were
The calibration range was 5–1,000 ng/mL for all analytes. Mean drug concentrations were calculated at each time point. PK parameters (plasma
half-life [T1/2]; time to reach Cmax [Tmax]; maximum plasma concentration [Cmax]; area under the plasma concentration-
time curve [AUC] from time zero to the last measurable concentration [AUClast]; AUC from time zero to infinity [i.e.,
the AUClast + the extrapolated AUC from AUClast to infinity; AUC0–∞]; apparent volume of distribution [Vz/F]; body
weight-adjusted apparent clearance [CL/F/kg]) were calculated from mean drug concentration-time data using non-
the r2 of the elimination rate constant (λ ) was < 0.9, the AUC , CL/F, and T were not reported (NR).
Series [5] can be described thus: in vivo. The conditions noted are these: NSG, mouse, in vivo, po. As to the method:
Blood samples were collected via
retro-orbital bleeding into EDTA-coated tubes from MOLM14 NSG mice 1 day A-D. and 7 days E-H. after completion of a 5-day drug
CBCs were determined using a Hemavet 950 analyzer.
Normal blood samples were obtained from normal, untreated NSG mice (n = 37) over several years.

The subject of series [6] is Caspase-3/7 activity in MOLM14 cells. As to the kind of experiment: Caspase-Glo 3/7 Assay. The conditions noted are these: AS 5 μM, 24h. Type of series: cell-based, human. Here is the method: as §1
Cells were co-stained with […] each 7-AAD and APC-conjugated Annexin-V (BioLegend), in Annexin-V binding buffer and analyzed by flow cytometry. Caspase-3/7 activity was measured using a Caspase-Glo 3/7 Assay (Promega, Madison, WI).

[7] abbreviates: four 5-day cycles ART-838 40 mg/kg/d.
Where [8] appears, read: four 5-day cycles AS 150 mg/kg/d.

Structures are written as SMILES. Values joined by “and” are separate entries in the source; they are usually repeats but may differ in a detail not shown here. Identical values can stand only once.

Description for primary B-ALL case #109: Mice were weighed weekly and tumors measured at least twice weekly. […] Mice were euthanized when tumors reached an estimated 2000mg. […] Mice were weighed weekly and observed daily for clinical signs of severe leukemia.
Highly immunodeficient NSG mice, obtained originally from Jackson Laboratory (Bar Harbor, ME), were bred and housed in the UMSOM animal facilities, and handled in a laminar flow hood under aseptic conditions. All experiment procedures and animal care were in compliance with the NIH guidelines for the Care and Use of Laboratory Animals and approved by the UMSOM Institutional Animal Care and Use Committee. Drugs were formulated in Tween 80:ethanol (7:3, v:v) and diluted 1:10 in filtered deionized water immediately before administration. […] Mice were monitored daily and euthanized when tumors reached an estimated mass of 2000mg (using the formula: [length x width^2]/2, assuming density = 1 mg/mm^3) [56]. […] Mice were euthanized for clinical signs of severe leukemia or other severe distress [52].
Mice were weighed weekly and observed daily for clinical signs of severe

As for `C[C@@H]1CCC2[C@@H](C)[C@@H](CC(COP(=O)(Oc3ccccc3)Oc3ccccc3)C[C@H]3O[C@@H]4O[C@@]5(C)CCC6[C@H](C)CCC([C@H]3C)[C@]64OO5)O[C@@H]3O[C@@]4(C)CCC1[C@@]23OO4` (some centres unmarked) [ART-838, artemisinin-derived trioxane diphenylphosphate dimer 838], the “fold lower IC50 than that of AS” value in series [1] is around 70 fold. In addition, the “fold resistance to growth inhibition after DFO pretreatment” value with MOLM14 cells [2] (MOLM14, DFO 11 μM pretreatment) is on record as 3 fold. Further, in the series on MOLM14 cells [2] (MOLM14, NAC 25 μM pretreatment), the “fold resistance to growth inhibition after NAC pretreatment” value is on record as “not increased”. Besides, the IC50 (in general, the concentration at which inhibition is half-maximal) in the series on KOPN8 cells (KOPN8 (B-ALL)) was determined as 12 ± 2 nM; in the series with MOLM14 cells [3], 25 nM; in the series with Kasumi-1 cells it was 67 ± 23 nM; in the series with MOLT-3 cells, 97 ± 58 nM. Moreover, it took 100 nM to reach the 90% level in the series with MOLM14 cells [3] (MOLM14) (IC90). The “growth inhibition by 48h” value in the series on MOLM14 cells [3] (MOLM14, 0.1 μM ART-838, alamarBlue) is 90-99%. Also, in the series with primary B-ALL case #109 (setting [7]), the “body weight loss following treatment” value is “No dose-limiting body weight loss”. For the same compound, in the series on primary B-ALL case #109 (setting [7]), the “extension of mean survival time” value was determined as 20 days. Further, in the series with primary B-ALL case #109 (setting [7]), the “prolongation of mean survival time” value was 55%. For the same compound, the “Mean time to severe clinical signs of leukemia (surrogate for survival)” value is listed as 57 in the series on primary B-ALL case #109 (four 5-day cycles ART-838 40 mg/kg/d oral gavage, vehicle 37); 47 in the series on primary B-ALL case #109 (second experiment: two 5-day cycles ART-838 50 mg/kg/d, days 1 and 29, vehicle 28).

As for `C[C@H]1[C@H](OC(=O)CCC(=O)O)O[C@@H]2O[C@@]3(C)CC[C@H]4[C@H](C)CC[C@@H]1[C@@]24OO3` [AS, artesunate], in the series “in vivo [4]”, the AUC(0-t) (commonly the area under the concentration-time curve up to a stated or last time point) is 34.8 ng·h/mL. In the series “in vivo [4]”, the Cmax – broadly, the highest concentration seen after dosing – is 67 ng/mL and 240 nM. Further, the Tmax (in general, the time at which the peak concentration occurs) in “in vivo [4]” is 15 min. The compound further showed an MTD in the series “in vivo [5]” of 500 to 600 mg/kg. Moreover, the MTD at 5 days/week in “in vivo [5]” fell in the range of 150 to 200 mg/kg. Also, the IC50 in the series on MOLM14 cells [2] (Homo sapiens, MOLM-14, MOLM14, 48h, Pre-Treatment: CTRL, unit inferred, read-out: IC50) turned out to be 885 ± 57 nM; in the series on KOPN8 cells (Homo sapiens, KOPN-8, KOPN8 (B-ALL)), 459 ± 49 nM; in the series on MOLM14 cells [3] (Homo sapiens, MOLM-14), 825 nM; in the series on Kasumi-1 cells (Homo sapiens), 1720 ± 230 nM; in the series with MOLT-3 cells (Homo sapiens), 4100 ± 620 nM. Besides, the inhibition (in general, the relative decrease from the control value, in per cent) at 5 µM in the series with MOLM14 cells [3] (Homo sapiens, MOLM-14, 48 h, MOLM14, 5 μM AS, alamarBlue, read-out: growth inhibition by 48h) was 90 to 99%. Further, the IC90 (commonly the concentration at which the effect reaches the 90% level) with MOLM14 cells [3] (Homo sapiens, MOLM-14, MOLM14) was found to be 5000 nM. Further, the “body weight loss following treatment” value with primary B-ALL case #109 (setting [8]) is “No dose-limiting body weight loss”. Also, the “extension of mean survival time” value in the series with primary B-ALL case #109 (setting [8]) was 19 days. Also, the “prolongation of mean survival time” value in the series on primary B-ALL case #109 (setting [8]) is reported as 51%. The “Mean time to severe clinical signs of leukemia (surrogate for survival)” value in the series on primary B-ALL case #109 (four 5-day cycles AS 150 mg/kg/d oral gavage, vehicle 37) was found to be 56; in the series on primary B-ALL case #109 (second experiment: two 5-day cycles AS 200 mg/kg/d, days 1 and 29, vehicle 28), 43. In addition, in [6], the caspase-3/7 activity entry is “caspase-3/7 activation”.
